From patent US4079141A, “Azabicycloalkanes” (priority 1976, dated 1978)
Where two headings read alike, the source gives them in different places.

What was measured:
[1] = tested on: mania (increased motor activity) produced in mice by morphine; assay: Morphine antagonist test: inhibition of the characteristic mania (increased motor activity) produced in mice by morphine; type: in vivo; settings: for % Inhibition (percent of pairs in which the mania is inhibited): subcutaneous, concurrently with 25 mg/kg morphine sulfate, 10 pairs of mice
Procedure: A sample of 25 mg/kg of body weight of morphine sulfate and the compound of the invention to be tested are concurrently administered subcutaneously to 10 pairs of mice. The mice are then observed for inhibition of the characteristic mania (increased motor activity) normally produced in mice by morphine. Results are outlined in Table II and expressed as percent of pairs in which the mania is inhibited at a given dose level.

[2] = tested on: 2-phenyl-1,4-quinone induced writhing; assay: 2-phenyl-1,4-quinone induced writhing assay in mice (analgesia); type: in vivo; settings: Mus musculus, sc, read-out: ED50 (inhibition of writhing)
Source text: Compounds of the invention are useful as analgesic agents due to their ability to alleviate pain in mammals. […] Exptl. Biol. Med., 95, 729 (1957)].

[3] = 0.25 h, mice, subcutaneous, drug administration time 15 minutes
[4] = 0.5 h, mice, subcutaneous, drug administration time 30 minutes

Oc1cccc(C23CCC(C2)N(Cc2ccco2)CC3)c1 (stereo not shown) [2-(2-furylmethyl)-5-(3-hydroxyphenyl)-2-azabicyclo[3.2.1]octane.HBr]
% Inhibition (percent of pairs in which the mania is inhibited) ([1]; dose 25 mg/kg): 100% | ED50 [2, 3]: 22 mg/kg

O=C(CCCN1CCC2(c3cccc(O)c3)CCC1C2)c1ccc(F)cc1 (stereo not shown) [2-[3-(4-fluorobenzoyl)propyl]-5-(3-hydroxyphenyl)-2-azabicyclo[3.2.1]octane.HBr]
% Inhibition (percent of pairs in which the mania is inhibited) ([1]; dose 10 mg/kg): 100%

O=C(CCCN1CCC2(c3cccc(O)c3)CCC1C2)c1ccc(F)cc1 (stereo not shown) [2-[3-(4-fluorobenzoyl)propyl]-5-(3-hydroxyphenyl)-2-azabicyclo[3.2.1]octane]
ED50 [2, 4]: 0.35 mg/kg

COc1cccc(C23CCC(C2)N(CCCC(=O)c2ccc(F)cc2)CC3)c1 (stereo not shown) [2-[3-(4-fluorobenzoyl)propyl]-5-(3-methoxyphenyl)-2-azabicyclo[3.2.1]octane.HBr]
% Inhibition (percent of pairs in which the mania is inhibited) ([1]; dose 10 mg/kg): 100% | ED50 ([2]; 1 h, mice, subcutaneous, drug administration time 60 minutes): 0.7 mg/kg

Oc1cccc(C23CCC(C2)N(CC2CC2)CC3)c1 (stereo not shown) [2-cyclopropylmethyl-5-(3-hydroxyphenyl)-2-azabicyclo[3.2.1]octane.HBr]
% Inhibition (percent of pairs in which the mania is inhibited) ([1]; dose 25 mg/kg): 100% | ED50 [2, 4]: 6 mg/kg

CCCCCN1CCC2(c3cccc(O)c3)CCC1C2 (stereo not shown) [2-n-amyl-5-(3-hydroxyphenyl)-2-azabicyclo[3.2.1]octane.HBr]
% Inhibition (percent of pairs in which the mania is inhibited) ([1]; dose 3 mg/kg): 50% | % Inhibition (percent of pairs in which the mania is inhibited) ([1]; dose 25 mg/kg): 100% | ED50 [2, 4]: 11 mg/kg

CCCCCN1CCC2(c3cccc(OC)c3)CCC1C2 (stereo not shown) [2-n-amyl-5-(3-methoxyphenyl)-2-azabicyclo[3.2.1]octane.HBr]
% Inhibition (percent of pairs in which the mania is inhibited) ([1]; dose 30 mg/kg): 100% | ED50 [2, 4]: 5 mg/kg

CCCCN1CCC2(c3cccc(O)c3)CCC1C2 (stereo not shown) [2-n-butyl-5-(3-hydroxyphenyl)-2-azabicyclo[3.2.1]octane.HBr]
% Inhibition (percent of pairs in which the mania is inhibited) ([1]; dose 25 mg/kg): 100% | ED50 [2, 3]: 9 mg/kg

CCCCN1CCC2(c3cccc(OC)c3)CCC1C2 (stereo not shown) [2-n-butyl-5-(3-methoxyphenyl)-2-azabicyclo[3.2.1]octane.HBr]
% Inhibition (percent of pairs in which the mania is inhibited) ([1]; dose 25 mg/kg): 100% | ED50 [2, 4]: 4.6 mg/kg

CC(=O)Oc1cccc(C23CCC(C2)N(C)CC3)c1 (stereo not shown) [5-(3-acetoxyphenyl)-2-methyl-2-azabicyclo[3.2.1]octane.HBr]
% Inhibition (percent of pairs in which the mania is inhibited) ([1]; dose 50 mg/kg): 100%

CC(=O)Oc1cccc(C23CCC(C2)N(CCc2ccccc2)CC3)c1 (stereo not shown) [5-(3-acetoxyphenyl)-2-phenethyl-2-azabicyclo[3.2.1]octane.HBr]
% Inhibition (percent of pairs in which the mania is inhibited) ([1]; dose 10 mg/kg): 70% | ED50 [2, 4]: 6.1 mg/kg

CN1CCC2(c3cccc(O)c3)CCC1C2 (stereo not shown) [5-(3-hydroxyphenyl)-2-methyl-2-azabicyclo[3.2.1]octane.HBr]
% Inhibition (percent of pairs in which the mania is inhibited) ([1]; dose 50 mg/kg): 80% | ED50 [2, 4]: 9.5 mg/kg

CCCN1CCC2(c3cccc(O)c3)CCC1C2 (stereo not shown) [5-(3-hydroxyphenyl)-2-n-propyl-2-azabicyclo[3.2.1]octane.HBr]
% Inhibition (percent of pairs in which the mania is inhibited) ([1]; dose 50 mg/kg): 100% | ED50 [2, 3]: 8.9 mg/kg

Oc1cccc(C23CCC(C2)N(CCc2ccccc2)CC3)c1 (stereo not shown) [5-(3-hydroxyphenyl)-2-phenethyl-2-azabicyclo[3.2.1]octane.HBr]
% Inhibition (percent of pairs in which the mania is inhibited) ([1]; dose 1 mg/kg): 50% | % Inhibition (percent of pairs in which the mania is inhibited) ([1]; dose 50 mg/kg): 100% | ED50 [2, 3]: 0.7 mg/kg

COc1cccc(C23CCC(C2)N(C)CC3)c1 (stereo not shown) [5-(3-methoxyphenyl)-2-methyl-2-azabicyclo[3.2.1]octane.HBr]
% Inhibition (percent of pairs in which the mania is inhibited) ([1]; dose 50 mg/kg): 50% | ED50 [2, 4]: 7.9 mg/kg

CCCN1CCC2(c3cccc(OC)c3)CCC1C2 (stereo not shown) [5-(3-methoxyphenyl)-2-n-propyl-2-azabicyclo[3.2.1]octane.HBr]
% Inhibition (percent of pairs in which the mania is inhibited) ([1]; dose 10 mg/kg): 50% | % Inhibition (percent of pairs in which the mania is inhibited) ([1]; dose 50 mg/kg): 100% | ED50 [2, 3]: 7.4 mg/kg

COc1cccc(C23CCC(C2)N(CCc2ccccc2)CC3)c1 (stereo not shown) [5-(3-methoxyphenyl)-2-phenethyl-2-azabicyclo[3.2.1]octane.HBr]
ED50 [2, 4]: 5.9 mg/kg

CN1CC[C@]23c4c5ccc(O)c4O[C@H]2[C@@H](O)C=C[C@H]3[C@H]1C5 [morphine, reference compound]
ED50 ([2]; 0.5 h): 0.47 mg/kg

CC(C)=CCN1CCC2(C)c3cc(O)ccc3CC1C2C (stereo not shown) [pentazocine, reference compound]
ED50 ([1]; Mus musculus, sc, mice, concurrently with morphine sulfate, for comparison, read-out: dose exhibiting a 50% inhibition (of morphine mania)): > 50 mg/kg | ED50 [2, 3]: 1.5 mg/kg | ED50 [2, 4]: 4.8 mg/kg
